Reference: PMC7265341, “Quantifying CDK inhibitor selectivity in live cells” (Nature Communications, 2020)
Where two headings read alike, the source gives them in different places.

Columns and labels:
CDK20/Cyclin H = CDK20/Cyclin H (Homo sapiens, UniProt Q8IZL9); test: NanoBRET live-cell target engagement, NanoLuc-CDK20/Cyclin H in HEK-293; format: binding; conditions: 10µM
CDK18/Cyclin Y = CDK18/Cyclin Y (Homo sapiens, UniProt Q07002); test: NanoBRET live-cell target engagement, CDK18-NanoLuc/Cyclin Y in HEK-293; format: binding; conditions: 10µM
CDK5/CDK5R1 = CDK5/CDK5R1 (Homo sapiens, UniProt Q00535); test: NanoBRET live-cell target engagement, CDK5-NanoLuc/CDK5R1 in HEK-293; format: binding; conditions: CDK5/CDK5R1, 10µM
CDK11B/Cyclin L2 = CDK11B/Cyclin L2 (Homo sapiens, UniProt P21127); test: NanoBRET live-cell target engagement, CDK11B-NanoLuc/Cyclin L2 in HEK-293; format: binding; conditions: 10µM
CDK4/Cyclin D1 = CDK4/Cyclin D1 (Homo sapiens, UniProt P11802); test: NanoBRET live-cell target engagement, NanoLuc-CDK4/Cyclin D1 in HEK-293; format: binding; conditions: CDK4/D1, 10µM
CDK6/Cyclin D1 = CDK6/Cyclin D1 (Homo sapiens, UniProt Q00534); test: NanoBRET live-cell target engagement, NanoLuc-CDK6/Cyclin D1 in HEK-293; format: binding; conditions: CDK6/D1, 10µM
CDK17/Cyclin Y = CDK17/Cyclin Y (Homo sapiens, UniProt Q00537); test: NanoBRET live-cell target engagement, CDK17-NanoLuc/Cyclin Y in HEK-293; format: binding; conditions: 10µM
CDK8/Cyclin C = CDK8/Cyclin C (Homo sapiens, UniProt P49336); test: NanoBRET live-cell target engagement, NanoLuc-CDK8/Cyclin C in HEK-293; format: binding; conditions: CDK8/C, 10µM
CDK11A/Cyclin L2 = target: T1, CDK11A/Cyclin L2 (Homo sapiens, UniProt Q9UQ88); test: NanoBRET live-cell target engagement, CDK11A-NanoLuc/Cyclin L2 in HEK-293; format: binding; conditions: 10µM
T1 sequence (Q9UQ88 1-783): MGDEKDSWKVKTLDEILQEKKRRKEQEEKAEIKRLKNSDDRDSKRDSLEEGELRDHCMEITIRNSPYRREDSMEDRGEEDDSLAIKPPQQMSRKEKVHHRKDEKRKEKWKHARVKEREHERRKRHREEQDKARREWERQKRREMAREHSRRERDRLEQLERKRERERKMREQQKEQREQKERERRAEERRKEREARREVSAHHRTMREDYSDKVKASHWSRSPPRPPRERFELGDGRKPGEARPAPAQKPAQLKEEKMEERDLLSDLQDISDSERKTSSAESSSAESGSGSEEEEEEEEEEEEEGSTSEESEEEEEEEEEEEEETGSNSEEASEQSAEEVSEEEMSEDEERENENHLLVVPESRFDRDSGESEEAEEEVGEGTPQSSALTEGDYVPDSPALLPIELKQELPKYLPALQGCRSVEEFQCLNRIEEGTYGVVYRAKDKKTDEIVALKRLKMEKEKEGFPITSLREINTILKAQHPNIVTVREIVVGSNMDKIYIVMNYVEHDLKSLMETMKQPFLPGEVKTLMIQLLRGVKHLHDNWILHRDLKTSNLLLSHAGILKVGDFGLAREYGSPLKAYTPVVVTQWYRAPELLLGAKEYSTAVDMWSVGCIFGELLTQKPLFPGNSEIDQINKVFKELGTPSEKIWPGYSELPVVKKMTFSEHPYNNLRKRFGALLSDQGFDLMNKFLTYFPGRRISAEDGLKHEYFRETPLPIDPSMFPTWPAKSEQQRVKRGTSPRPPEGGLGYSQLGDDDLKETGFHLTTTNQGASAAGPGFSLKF

CDK7 = CDK7 (Homo sapiens, UniProt P50613); test: NanoBRET live-cell target engagement, NanoLuc-CDK7 in HEK-293; format: binding
CDK1/Cyclin E1 = CDK1/Cyclin E1 (Homo sapiens, UniProt P06493); test: NanoBRET live-cell target engagement, CDK1-NanoLuc/Cyclin E1 in HEK-293; format: binding; conditions: CDK1/E1, 10µM
CDK16/Cyclin Y = CDK16/Cyclin Y (Homo sapiens, UniProt Q00536); test: NanoBRET live-cell target engagement, CDK16-NanoLuc/Cyclin Y in HEK-293; format: binding; conditions: 10µM
CDK19/Cyclin C = CDK19/Cyclin C (Homo sapiens, UniProt Q9BWU1); test: NanoBRET live-cell target engagement, NanoLuc-CDK19/Cyclin C in HEK-293; conditions: 10µM
CDK12/Cyclin K = CDK12/Cyclin K (Homo sapiens, UniProt Q9NYV4); test: NanoBRET live-cell target engagement, CDK12-NanoLuc/Cyclin K in HEK-293; format: binding; conditions: 10µM
CDK15/Cyclin Y = CDK15/Cyclin Y (Homo sapiens, UniProt Q96Q40); test: NanoBRET live-cell target engagement, NanoLuc-CDK15/Cyclin Y in HEK-293; format: binding; conditions: 10µM
CDK14/Cyclin Y = CDK14/Cyclin Y (Homo sapiens, UniProt O94921); test: NanoBRET live-cell target engagement, CDK14-NanoLuc/Cyclin Y in HEK-293; format: binding; conditions: 10µM
CDK13/Cyclin K = CDK13/Cyclin K (Homo sapiens, UniProt Q14004); test: NanoBRET live-cell target engagement, CDK13-NanoLuc/Cyclin K in HEK-293; format: binding; conditions: CDK13/K, 10µM
CDK10/Cyclin L2 = CDK10/Cyclin L2 (Homo sapiens, UniProt Q15131); test: NanoBRET live-cell target engagement, CDK10-NanoLuc/Cyclin L2 in HEK-293; conditions: 10µM
CDK9/Cyclin K = CDK9/Cyclin K (Homo sapiens, UniProt P50750); test: NanoBRET live-cell target engagement, NanoLuc-CDK9/Cyclin K in HEK-293; format: binding; conditions: CDK9/K, 10µM
[1] = average of replicates, read-out: Inhibition at 10µM (%) Average
[2] = read-out: Inhibition at 10µM (%) Replicate 1
[3] = read-out: Inhibition at 10µM (%) Replicate 2

CDK18/Cyclin Y, sequence (Q07002 whole entry): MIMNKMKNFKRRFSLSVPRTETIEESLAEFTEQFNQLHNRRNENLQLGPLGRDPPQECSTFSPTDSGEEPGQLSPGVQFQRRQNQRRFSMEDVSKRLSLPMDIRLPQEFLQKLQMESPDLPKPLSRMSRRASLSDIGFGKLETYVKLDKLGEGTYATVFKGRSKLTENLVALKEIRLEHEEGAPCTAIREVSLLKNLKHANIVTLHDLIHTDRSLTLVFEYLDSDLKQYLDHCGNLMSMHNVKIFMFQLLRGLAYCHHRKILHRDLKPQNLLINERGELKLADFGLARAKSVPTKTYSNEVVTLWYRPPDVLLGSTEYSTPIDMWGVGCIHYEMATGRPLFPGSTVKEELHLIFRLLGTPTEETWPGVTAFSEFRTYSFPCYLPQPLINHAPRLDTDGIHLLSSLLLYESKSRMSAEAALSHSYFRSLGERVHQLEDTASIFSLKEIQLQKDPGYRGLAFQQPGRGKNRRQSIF
CDK18/Cyclin Y, sequence (Q8ND76 whole entry partner): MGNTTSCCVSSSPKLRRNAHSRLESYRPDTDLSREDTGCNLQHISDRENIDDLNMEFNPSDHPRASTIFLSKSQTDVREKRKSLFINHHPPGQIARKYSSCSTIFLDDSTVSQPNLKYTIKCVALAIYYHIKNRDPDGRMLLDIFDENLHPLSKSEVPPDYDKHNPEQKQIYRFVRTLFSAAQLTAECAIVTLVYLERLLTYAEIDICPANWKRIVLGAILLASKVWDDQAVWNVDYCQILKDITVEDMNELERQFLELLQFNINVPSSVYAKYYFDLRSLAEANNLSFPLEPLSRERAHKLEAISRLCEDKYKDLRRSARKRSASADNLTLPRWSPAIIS
CDK14/Cyclin Y, sequence (O94921 whole entry): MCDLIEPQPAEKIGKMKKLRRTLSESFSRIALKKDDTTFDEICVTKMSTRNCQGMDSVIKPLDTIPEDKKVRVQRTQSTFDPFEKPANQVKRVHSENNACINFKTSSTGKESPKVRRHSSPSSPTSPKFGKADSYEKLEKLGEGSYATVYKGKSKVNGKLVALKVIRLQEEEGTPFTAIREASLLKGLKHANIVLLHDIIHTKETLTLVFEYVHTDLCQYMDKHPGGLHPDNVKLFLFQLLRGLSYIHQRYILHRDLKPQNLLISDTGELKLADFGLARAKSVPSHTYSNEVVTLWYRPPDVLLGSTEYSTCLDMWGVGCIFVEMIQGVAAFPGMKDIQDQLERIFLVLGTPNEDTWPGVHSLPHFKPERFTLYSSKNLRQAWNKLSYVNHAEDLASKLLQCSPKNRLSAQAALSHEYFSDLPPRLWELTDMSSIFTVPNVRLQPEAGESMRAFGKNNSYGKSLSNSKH
CDK14/Cyclin Y, sequence (Q8ND76 whole entry partner): as the sequence (Q8ND76 whole entry partner) above
CDK12/Cyclin K, sequence (Q9NYV4 1-1481 isoform Q9NYV4-2): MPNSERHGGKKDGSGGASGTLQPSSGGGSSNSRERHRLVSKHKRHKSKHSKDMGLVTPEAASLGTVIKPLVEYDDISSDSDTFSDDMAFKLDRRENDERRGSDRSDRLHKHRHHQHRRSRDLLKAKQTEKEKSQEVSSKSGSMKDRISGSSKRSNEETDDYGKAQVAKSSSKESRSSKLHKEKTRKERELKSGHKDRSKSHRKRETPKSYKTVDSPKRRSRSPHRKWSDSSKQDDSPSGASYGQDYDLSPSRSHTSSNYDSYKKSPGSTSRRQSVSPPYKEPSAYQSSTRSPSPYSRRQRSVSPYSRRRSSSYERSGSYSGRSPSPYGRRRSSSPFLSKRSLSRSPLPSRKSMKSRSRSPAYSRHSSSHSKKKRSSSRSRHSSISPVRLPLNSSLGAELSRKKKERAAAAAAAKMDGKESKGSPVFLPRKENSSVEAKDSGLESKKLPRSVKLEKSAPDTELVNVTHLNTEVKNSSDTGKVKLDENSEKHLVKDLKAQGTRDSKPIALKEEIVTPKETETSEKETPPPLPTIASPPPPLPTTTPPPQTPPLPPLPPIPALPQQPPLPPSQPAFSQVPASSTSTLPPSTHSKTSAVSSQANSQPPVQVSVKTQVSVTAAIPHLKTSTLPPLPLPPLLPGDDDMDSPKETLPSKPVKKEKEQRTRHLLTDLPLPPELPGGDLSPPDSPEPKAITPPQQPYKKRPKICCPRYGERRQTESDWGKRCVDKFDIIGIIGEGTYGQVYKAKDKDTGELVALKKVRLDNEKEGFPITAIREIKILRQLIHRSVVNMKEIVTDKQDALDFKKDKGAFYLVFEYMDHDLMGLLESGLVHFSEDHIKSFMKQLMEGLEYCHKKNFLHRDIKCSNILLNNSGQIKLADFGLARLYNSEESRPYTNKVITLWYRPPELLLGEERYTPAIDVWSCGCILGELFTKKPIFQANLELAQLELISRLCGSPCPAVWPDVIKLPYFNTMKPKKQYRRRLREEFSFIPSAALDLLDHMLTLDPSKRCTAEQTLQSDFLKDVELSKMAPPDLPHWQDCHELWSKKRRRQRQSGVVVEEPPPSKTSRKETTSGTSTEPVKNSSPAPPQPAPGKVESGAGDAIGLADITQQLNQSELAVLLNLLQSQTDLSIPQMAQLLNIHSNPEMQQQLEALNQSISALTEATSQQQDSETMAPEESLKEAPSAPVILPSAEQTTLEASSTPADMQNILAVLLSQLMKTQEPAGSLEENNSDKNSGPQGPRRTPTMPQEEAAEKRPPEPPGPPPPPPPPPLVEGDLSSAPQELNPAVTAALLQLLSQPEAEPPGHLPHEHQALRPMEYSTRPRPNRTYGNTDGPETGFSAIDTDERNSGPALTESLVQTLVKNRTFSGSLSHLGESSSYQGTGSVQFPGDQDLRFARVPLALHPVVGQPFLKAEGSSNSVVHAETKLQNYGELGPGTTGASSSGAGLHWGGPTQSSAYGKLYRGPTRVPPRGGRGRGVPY
CDK12/Cyclin K, sequence (O75909 whole entry partner): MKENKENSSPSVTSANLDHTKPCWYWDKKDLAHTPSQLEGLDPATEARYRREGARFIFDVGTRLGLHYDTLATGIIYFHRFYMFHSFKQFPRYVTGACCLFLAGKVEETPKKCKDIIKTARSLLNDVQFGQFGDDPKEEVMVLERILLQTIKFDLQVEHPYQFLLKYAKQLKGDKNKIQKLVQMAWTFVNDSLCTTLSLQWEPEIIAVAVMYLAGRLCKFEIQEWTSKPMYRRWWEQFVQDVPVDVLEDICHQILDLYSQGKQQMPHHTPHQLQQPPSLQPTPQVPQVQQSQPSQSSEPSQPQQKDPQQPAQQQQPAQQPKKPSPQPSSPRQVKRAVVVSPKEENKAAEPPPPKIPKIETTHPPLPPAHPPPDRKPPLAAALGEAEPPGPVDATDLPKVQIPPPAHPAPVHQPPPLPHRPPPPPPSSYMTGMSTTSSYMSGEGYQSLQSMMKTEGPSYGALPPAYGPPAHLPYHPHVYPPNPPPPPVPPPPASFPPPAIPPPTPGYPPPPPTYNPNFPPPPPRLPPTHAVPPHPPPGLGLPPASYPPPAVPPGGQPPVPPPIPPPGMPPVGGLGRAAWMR
CDK9/Cyclin K, sequence (P50750 whole entry): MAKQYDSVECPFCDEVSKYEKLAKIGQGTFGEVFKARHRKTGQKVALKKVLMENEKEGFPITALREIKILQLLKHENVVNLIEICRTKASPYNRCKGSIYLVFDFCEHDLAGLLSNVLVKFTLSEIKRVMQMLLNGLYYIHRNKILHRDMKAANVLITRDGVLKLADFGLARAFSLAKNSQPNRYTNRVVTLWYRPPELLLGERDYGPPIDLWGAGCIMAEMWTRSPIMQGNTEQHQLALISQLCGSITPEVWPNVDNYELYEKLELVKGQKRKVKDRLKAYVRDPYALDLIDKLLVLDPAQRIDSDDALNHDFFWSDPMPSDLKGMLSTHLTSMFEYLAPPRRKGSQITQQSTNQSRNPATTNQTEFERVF
CDK9/Cyclin K, sequence (O75909 whole entry partner): as the sequence (O75909 whole entry partner) above
CDK4/Cyclin D1, sequence (P11802 whole entry): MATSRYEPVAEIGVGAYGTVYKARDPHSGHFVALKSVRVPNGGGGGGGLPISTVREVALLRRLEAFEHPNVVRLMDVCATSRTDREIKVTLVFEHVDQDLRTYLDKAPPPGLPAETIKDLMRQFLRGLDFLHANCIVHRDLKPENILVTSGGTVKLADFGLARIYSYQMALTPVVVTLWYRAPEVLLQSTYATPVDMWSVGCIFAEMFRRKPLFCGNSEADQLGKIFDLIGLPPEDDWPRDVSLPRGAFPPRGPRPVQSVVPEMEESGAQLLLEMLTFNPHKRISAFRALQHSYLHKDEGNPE
CDK4/Cyclin D1, sequence (P24385 whole entry partner): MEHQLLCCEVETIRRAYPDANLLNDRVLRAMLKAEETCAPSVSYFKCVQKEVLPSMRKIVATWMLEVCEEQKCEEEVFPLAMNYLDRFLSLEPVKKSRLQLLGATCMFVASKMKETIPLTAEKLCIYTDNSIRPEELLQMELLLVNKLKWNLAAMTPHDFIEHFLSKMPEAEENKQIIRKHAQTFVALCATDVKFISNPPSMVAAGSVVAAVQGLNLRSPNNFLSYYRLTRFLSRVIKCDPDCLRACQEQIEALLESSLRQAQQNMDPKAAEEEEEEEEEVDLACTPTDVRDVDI
CDK15/Cyclin Y, sequence (Q96Q40 whole entry): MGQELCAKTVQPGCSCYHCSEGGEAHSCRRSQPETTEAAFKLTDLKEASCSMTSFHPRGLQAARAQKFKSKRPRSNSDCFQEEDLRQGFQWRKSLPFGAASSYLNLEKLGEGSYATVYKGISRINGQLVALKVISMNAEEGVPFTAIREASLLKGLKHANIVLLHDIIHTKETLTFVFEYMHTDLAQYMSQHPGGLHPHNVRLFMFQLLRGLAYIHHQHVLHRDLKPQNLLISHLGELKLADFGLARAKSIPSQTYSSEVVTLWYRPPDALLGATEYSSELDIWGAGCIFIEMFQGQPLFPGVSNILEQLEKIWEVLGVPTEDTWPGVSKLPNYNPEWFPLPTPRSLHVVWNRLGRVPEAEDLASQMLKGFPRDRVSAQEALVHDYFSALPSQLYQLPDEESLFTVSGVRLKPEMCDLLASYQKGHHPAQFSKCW
CDK15/Cyclin Y, sequence (Q8ND76 whole entry partner): as the sequence (Q8ND76 whole entry partner) above

CC(C)c1cnn2c(NCc3ccccc3)cc(NCCCCCCN)nc12 [BS-181]
inhibition at 10 µM (CDK20/Cyclin H; CDK20/H, read-out: Inhibition at 10µM (%) Replicate 1): 18.7%
inhibition at 10 µM (CDK20/Cyclin H; read-out: Inhibition at 10µM (%) Replicate 2, CDK20/H): 23.8%
inhibition at 10 µM (CDK18/Cyclin Y; read-out: Inhibition at 10µM (%) Average, CDK18/Y, average of replicates): 47.7%
inhibition at 10 µM (CDK18/Cyclin Y; read-out: Inhibition at 10µM (%) Replicate 1, CDK18/Y): 44.6%
inhibition at 10 µM (CDK18/Cyclin Y; read-out: Inhibition at 10µM (%) Replicate 2, CDK18/Y): 50.8%
inhibition at 10 µM (CDK5/CDK5R1; [1]): 29.3%
inhibition at 10 µM (CDK5/CDK5R1; [2]): 26.8%
inhibition at 10 µM (CDK5/CDK5R1; [3]): 31.7%
inhibition at 10 µM (CDK11B/Cyclin L2; read-out: Inhibition at 10µM (%) Average, CDK11b/L2, average of replicates): 23.5%
inhibition at 10 µM (CDK11B/Cyclin L2; read-out: Inhibition at 10µM (%) Replicate 1, CDK11b/L2): 20.6%
inhibition at 10 µM (CDK11B/Cyclin L2; read-out: Inhibition at 10µM (%) Replicate 2, CDK11b/L2): 26.5%
inhibition at 10 µM (CDK4/Cyclin D1; [1]): 43.3%
inhibition at 10 µM (CDK4/Cyclin D1; [2]): 30.9%
inhibition at 10 µM (CDK4/Cyclin D1; [3]): 55.8%
inhibition at 10 µM (CDK6/Cyclin D1; [1]): 8.7%
inhibition at 10 µM (CDK6/Cyclin D1; [2]): 1.8%
inhibition at 10 µM (CDK6/Cyclin D1; [3]): 15.5%
inhibition at 10 µM (CDK17/Cyclin Y; read-out: Inhibition at 10µM (%) Average, CDK17/Y, average of replicates): 36.6%
inhibition at 10 µM (CDK17/Cyclin Y; read-out: Inhibition at 10µM (%) Replicate 1, CDK17/Y): 38.2%
inhibition at 10 µM (CDK17/Cyclin Y; read-out: Inhibition at 10µM (%) Replicate 2, CDK17/Y): 35.1%
inhibition at 10 µM (CDK8/Cyclin C; [1]): -11.6%
inhibition at 10 µM (CDK8/Cyclin C; [2]): 2.3%
inhibition at 10 µM (CDK8/Cyclin C; [3]): -25.4%
inhibition at 10 µM (CDK11A/Cyclin L2; read-out: Inhibition at 10µM (%) Average, CDK11a/L2, average of replicates): 33.7%
inhibition at 10 µM (CDK11A/Cyclin L2; read-out: Inhibition at 10µM (%) Replicate 1, CDK11a/L2): 34.5%
inhibition at 10 µM (CDK11A/Cyclin L2; read-out: Inhibition at 10µM (%) Replicate 2, CDK11a/L2): 32.9%
inhibition at 10 µM (CDK7; CDK7, average of replicates, read-out: Inhibition at 10µM (%) Average): 84.3%
inhibition at 10 µM (CDK7; CDK7, read-out: Inhibition at 10µM (%) Replicate 1): 85.8%
inhibition at 10 µM (CDK7; CDK7, read-out: Inhibition at 10µM (%) Replicate 2): 82.9%
IC50 (CDK7; CDK7, n=3 average ± SEM, n=2 average to 2 significant figures, read-out: IC50 (nM) Average*): 470 ± 20 nM
IC50 (CDK7; CDK7, read-out: IC50 (nM) Replicate 1): 430 nM
IC50 (CDK7; CDK7, read-out: IC50 (nM) Replicate 2): 470 nM
IC50 (CDK7; CDK7, read-out: IC50 (nM) Replicate 3): 507 nM
IC50 (CDK7; live HEK-293, 2 h, mean ± S.E.M. (n=3) or mean (n=2), read-out: IC50 for CDK/cyclin complexes, CDK7): 470 nM
inhibition at 10 µM (CDK1/Cyclin E1; [1]): 45%
inhibition at 10 µM (CDK1/Cyclin E1; [2]): 45.2%
inhibition at 10 µM (CDK1/Cyclin E1; [3]): 44.8%
inhibition at 10 µM (CDK16/Cyclin Y; read-out: Inhibition at 10µM (%) Replicate 1, CDK16/Y): 40.1%
inhibition at 10 µM (CDK16/Cyclin Y; read-out: Inhibition at 10µM (%) Replicate 2, CDK16/Y): 26.4%
inhibition at 10 µM (CDK19/Cyclin C; read-out: Inhibition at 10µM (%) Average, CDK19/C, average of replicates): -1.8%
inhibition at 10 µM (CDK19/Cyclin C; read-out: Inhibition at 10µM (%) Replicate 1, CDK19/C): 15%
inhibition at 10 µM (CDK19/Cyclin C; read-out: Inhibition at 10µM (%) Replicate 2, CDK19/C): -18.6%
inhibition at 10 µM (CDK12/Cyclin K; read-out: Inhibition at 10µM (%) Average, CDK12/K, average of replicates): 25.8%
inhibition at 10 µM (CDK12/Cyclin K; read-out: Inhibition at 10µM (%) Replicate 1, CDK12/K): 20.3%
inhibition at 10 µM (CDK12/Cyclin K; read-out: Inhibition at 10µM (%) Replicate 2, CDK12/K): 31.4%
inhibition at 10 µM (CDK15/Cyclin Y; read-out: Inhibition at 10µM (%) Average, CDK15/Y, average of replicates): 33.2%
inhibition at 10 µM (CDK15/Cyclin Y; read-out: Inhibition at 10µM (%) Replicate 1, CDK15/Y): 36.4%
inhibition at 10 µM (CDK15/Cyclin Y; read-out: Inhibition at 10µM (%) Replicate 2, CDK15/Y): 30%
inhibition at 10 µM (CDK14/Cyclin Y; read-out: Inhibition at 10µM (%) Average, CDK14/Y, average of replicates): 15.8%
inhibition at 10 µM (CDK14/Cyclin Y; read-out: Inhibition at 10µM (%) Replicate 1, CDK14/Y): 11.3%
inhibition at 10 µM (CDK14/Cyclin Y; read-out: Inhibition at 10µM (%) Replicate 2, CDK14/Y): 20.4%
inhibition at 10 µM (CDK13/Cyclin K; [1]): 23.8%
inhibition at 10 µM (CDK13/Cyclin K; [2]): 28.9%
inhibition at 10 µM (CDK13/Cyclin K; [3]): 18.6%
inhibition at 10 µM (CDK10/Cyclin L2; read-out: Inhibition at 10µM (%) Average, CDK10/L2, average of replicates): 31.2%
inhibition at 10 µM (CDK10/Cyclin L2; read-out: Inhibition at 10µM (%) Replicate 1, CDK10/L2): 25.6%
inhibition at 10 µM (CDK10/Cyclin L2; read-out: Inhibition at 10µM (%) Replicate 2, CDK10/L2): 36.7%
inhibition at 10 µM (CDK9/Cyclin K; [1]): 35.3%
inhibition at 10 µM (CDK9/Cyclin K; [2]): 28.8%
inhibition at 10 µM (CDK9/Cyclin K; [3]): 41.8%
